Measured values as given in patent US7067633B2, “Targeting cellular entry, cell survival, and pathogenicity by dynein light chain 1/PIN in human cells” (Board of Regents, The University of Texas System, priority 2003, dated 2006).

How the values were obtained:
Assay type in all cases: cell-based, human
[1] = tested on: DLC1; test: DLC1 protein and mRNA expression; conditions: MCF-7/TAMR1 and Ishikawa cells, 24 h
Procedure: MCF-7/Tam-sen, MCF-7/TAMR1 and Ishikawa cells were treated with E2 (10^−9M) or Tam (10^−9M) for 24 h, and cell lysates were assayed for DLC1 and Pak1 protein expression. […] FIG. 21C: Effect of different periods of E2 treatment and cycloheximide (CHX) and Actinomycin D (ACTD) treatment on the ability of E2 to upregulate DLC1 mRNA in MCF-7 cells.

[2] = tested on: ER transactivation (ERE-luc); test: ERE-luc transactivation assay
Procedure: MCF-7/DA-Pak1 cells were transfected with ERE-luc, treated with or without Dox for 24 h and then with or without E2 (10^−9M) and/or Tam (10^−8M) for 24 h, and ERE-luc activity was measured. […] FIG. 20D: MCF-7/TAM-Sen and MCF-7/TAMR1 cells were transfected with ERE-luc and treated with E2 or Tam for 24 h and ERE-luc activity was measured. […] FIG. 20L: Ishikawa cells were cotransfected with Pak1 siRNA control or Pak1 siRNA wt and treated with or without Tam (10^−8M) for 24 h and ERE-luc activity was measured.
Ishikawa and MCF-7/TAMR1 cells were transfected with control or Pak1 siRNA for 48 h and then with ERE-luc for 24 h and treated with E2 (10^−9M) for 24 h and ERE-luc activity was measured. […] Ishikawa cells were treated with control or and Pak1 and DLC siRNA for 48 h and then transfected with ERE-luc and treated with Tam (10^−8M) for 24 h and ERE-luc activity was measured.

[3] = tested on: ZR75 cells; test: Cell cycle progression by FACS analysis of serum-starved clones; conditions: serum-starved stable clones
Procedure: FIGS. 5A–5C—Requirement of DLC1/PIN and Pak1 interaction in cell proliferation and survival. FIG. 5A: Equal number of cells ZR75R stable cells expressing DLC1/PIN wild type or DLC1/PIN^del88-89 mutant were plated and cell proliferation was determined by trypsinizing and counting cells using a coulter counter. Each colne was plated in triplicate and experiment was repeated twice with similar results. FIG. 5B: Cell cycle progression of DLC1/PIN wild type or mutant clones was analyzed by FACS analysis. […] For example, a smooth nuclear membrane was scored as nonapoptotic, as opposed to membrane blebbing or rupture, which was scored as apoptotic. Nuclei committed to enter mitosis were not scored in either of these groups because they were easily identified for their specific “pulverized” pattern of Lamin A/C staining. Ten randomly selected fields were analyzed for each condition. […]
DLC1/PIN regulation of cell growth and survival. […] After 10 h, apoptosis was quantitated by scoring the integrity of the nuclear membrane in cells expressing both RFP and myc tags to detect DLC/DLC1/PIN and Pak1 respectively (FIG. 5D).

Molecule	expression of the DLC1 protein [1]	inhibitory effects on ERE-luc activity ([2]; Ishikawa cells, both DLC1 and Pak1 knocked down)	Pak1-mediated ERE-stimulation ([2]; MCF-7/DA-Pak1 cells)	cell cycle distribution [3]
CC/C(=C(\c1ccccc1)c1ccc(OCCN(C)C)cc1)c1ccccc1 [tamoxifen]	robustly upregulated	restored the inhibitory effects	not inhibited	
DLC1/PIN^del 88-89: DLC1/PIN mutant in which Ser88 and amino acid 89 were deleted				significant increase in the cells in pre-Go phase
